ChEMBL document CHEMBL4130451, “Design and Synthesis of N-Aryl Phenoxyethoxy Pyridinones as Highly Selective and CNS Penetrant mGlu3 NAMs” (ACS Med Chem Lett, 2017)
Active and inactive are the calls of the source. The rule behind the calls is not given here.

Experiments:
[1] = biological target: Gamma-aminobutyric acid type B receptor subunit 1 (Homo sapiens) (UniProt Q9UBS5); assay: Inhibition of human GABA-B1A receptor at 10 uM relative to control
[2] = Brain to plasma partition coefficient, Kp of the compound in Harlan CD-1 mouse at 3 mg/kg, ip by LC/MS-MS analysis; assay type: ADME, organism-based
[3] = biological target: Cytochrome P450 2D6 (Homo sapiens, UniProt P10635); assay: Inhibition of CYP2D6 in human liver microsomes using dextromethorphan as substrate after 15 mins in presence of NADPH by LC/MS/MS analysis; assay type: ADME
[4] = biological target: Mu-type opioid receptor (Homo sapiens) (UniProt P35372); assay: Inhibition of human mu opioid receptor at 10 uM relative to control
[5] = biological target: Beta-1 adrenergic receptor (Homo sapiens) (UniProt P08588); assay: Inhibition of human adrenergic beta1 receptor at 10 uM relative to control
Chain of Beta-1 adrenergic receptor (Homo sapiens) (P08588 whole entry, looked up): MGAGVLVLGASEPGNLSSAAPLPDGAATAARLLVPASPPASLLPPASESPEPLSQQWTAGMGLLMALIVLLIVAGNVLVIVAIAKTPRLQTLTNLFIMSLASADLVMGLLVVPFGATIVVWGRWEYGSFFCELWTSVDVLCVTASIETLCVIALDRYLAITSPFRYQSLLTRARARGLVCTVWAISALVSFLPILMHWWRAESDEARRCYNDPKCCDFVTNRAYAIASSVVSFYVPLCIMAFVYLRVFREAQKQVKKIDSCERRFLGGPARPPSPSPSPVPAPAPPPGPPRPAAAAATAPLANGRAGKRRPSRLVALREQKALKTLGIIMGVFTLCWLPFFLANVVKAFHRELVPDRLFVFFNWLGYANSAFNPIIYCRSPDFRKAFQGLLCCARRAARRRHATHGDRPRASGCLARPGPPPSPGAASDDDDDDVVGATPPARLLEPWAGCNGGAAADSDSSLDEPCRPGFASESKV

[6] = biological target: D(2) dopamine receptor (Homo sapiens) (UniProt P14416); assay: Inhibition of human dopamine D2S receptor at 10 uM relative to control
[7] = biological target: Alpha-2A adrenergic receptor (Homo sapiens) (UniProt P08913); assay: Inhibition of human adrenergic alpha 2A receptor at 10 uM relative to control
Chain of Alpha-2A adrenergic receptor (Homo sapiens) (P08913 whole entry): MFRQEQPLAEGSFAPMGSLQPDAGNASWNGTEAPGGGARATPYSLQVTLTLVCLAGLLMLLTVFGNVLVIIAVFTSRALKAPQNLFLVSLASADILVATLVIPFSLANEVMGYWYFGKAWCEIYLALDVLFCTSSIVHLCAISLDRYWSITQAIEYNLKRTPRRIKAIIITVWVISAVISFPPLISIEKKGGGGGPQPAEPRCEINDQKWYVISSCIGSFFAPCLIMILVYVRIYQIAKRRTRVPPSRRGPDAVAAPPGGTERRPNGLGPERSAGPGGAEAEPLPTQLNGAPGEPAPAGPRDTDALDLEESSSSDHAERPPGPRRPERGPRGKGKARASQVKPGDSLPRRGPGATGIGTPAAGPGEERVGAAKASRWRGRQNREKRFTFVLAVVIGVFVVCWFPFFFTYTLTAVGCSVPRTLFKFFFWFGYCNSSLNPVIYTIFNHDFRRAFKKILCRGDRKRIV

[8] = biological target: Histamine H2 receptor (Homo sapiens) (UniProt P25021); assay: Inhibition of human histamine H2 receptor at 10 uM relative to control
[9] = biological target: Histamine H1 receptor (Homo sapiens) (UniProt P35367); assay: Inhibition of human histamine H1 receptor at 10 uM relative to control
[10] = biological target: Metabotropic glutamate receptor 3 (Rattus norvegicus) (UniProt P31422); assay: Negative allosteric modulation of rat mGlu3 receptor expressed in TREX cells coexpressing Galpha15 assessed as inhibition of glutamate induced-calcium mobilization by measuring minimum glutamate response preincubated for 2.3 mins followed by glutamate addition measured for 2.6 mins by Fluo-4 AM dye based fluorescence assay relative to glutamate; assay type: functional, cell-based
Chain of Metabotropic glutamate receptor 3 (Rattus norvegicus) (P31422 23-879 limits assumed): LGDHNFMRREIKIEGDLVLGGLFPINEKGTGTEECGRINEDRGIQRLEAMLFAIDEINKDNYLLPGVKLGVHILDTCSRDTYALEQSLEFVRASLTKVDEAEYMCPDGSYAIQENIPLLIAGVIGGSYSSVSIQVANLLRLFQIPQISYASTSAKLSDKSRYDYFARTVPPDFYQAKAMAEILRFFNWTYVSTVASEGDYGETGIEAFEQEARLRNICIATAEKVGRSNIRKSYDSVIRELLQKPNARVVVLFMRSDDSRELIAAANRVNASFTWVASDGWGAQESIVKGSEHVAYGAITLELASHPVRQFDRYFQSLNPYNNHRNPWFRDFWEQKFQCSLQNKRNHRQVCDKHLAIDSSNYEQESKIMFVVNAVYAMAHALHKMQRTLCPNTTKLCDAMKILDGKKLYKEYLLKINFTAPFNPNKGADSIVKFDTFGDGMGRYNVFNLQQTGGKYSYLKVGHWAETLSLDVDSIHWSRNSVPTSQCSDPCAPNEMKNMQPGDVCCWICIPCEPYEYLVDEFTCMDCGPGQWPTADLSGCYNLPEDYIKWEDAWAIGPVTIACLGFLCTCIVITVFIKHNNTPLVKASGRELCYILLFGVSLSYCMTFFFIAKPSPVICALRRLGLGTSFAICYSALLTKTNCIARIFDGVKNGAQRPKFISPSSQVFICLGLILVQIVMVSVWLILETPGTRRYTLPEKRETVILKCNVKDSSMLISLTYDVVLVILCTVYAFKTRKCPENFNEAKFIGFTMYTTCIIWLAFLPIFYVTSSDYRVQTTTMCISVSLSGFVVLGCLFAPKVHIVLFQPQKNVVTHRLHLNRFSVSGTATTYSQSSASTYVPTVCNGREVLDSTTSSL

[11] = organism: Rattus norvegicus; assay: Inhibition of rat kainate glutamate receptor at 10 uM relative to control
[12] = biological target: Kappa-type opioid receptor (Homo sapiens) (UniProt P41145); assay: Inhibition of human kappa opioid receptor at 10 uM relative to control
Chain of Kappa-type opioid receptor (Homo sapiens) (P41145 whole entry): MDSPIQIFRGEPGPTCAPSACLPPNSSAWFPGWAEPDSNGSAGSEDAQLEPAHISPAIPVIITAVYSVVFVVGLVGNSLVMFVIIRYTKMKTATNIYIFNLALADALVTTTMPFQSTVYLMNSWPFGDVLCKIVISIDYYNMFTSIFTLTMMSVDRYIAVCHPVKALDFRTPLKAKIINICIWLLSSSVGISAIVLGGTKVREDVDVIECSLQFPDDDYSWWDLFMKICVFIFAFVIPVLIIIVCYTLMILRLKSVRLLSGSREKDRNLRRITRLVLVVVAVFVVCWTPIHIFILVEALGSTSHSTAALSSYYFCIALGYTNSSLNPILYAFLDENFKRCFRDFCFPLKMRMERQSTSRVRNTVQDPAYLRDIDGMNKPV

[13] = biological target: Muscarinic acetylcholine receptor M2 (Homo sapiens) (UniProt P08172); assay: Inhibition of human muscarinic M2 receptor at 10 uM relative to control
[14] = biological target: Platelet-activating factor receptor (Homo sapiens) (UniProt P25105); assay: Inhibition of human platelet activating factor receptor at 10 uM relative to control
Chain of Platelet-activating factor receptor (Homo sapiens) (P25105 whole entry): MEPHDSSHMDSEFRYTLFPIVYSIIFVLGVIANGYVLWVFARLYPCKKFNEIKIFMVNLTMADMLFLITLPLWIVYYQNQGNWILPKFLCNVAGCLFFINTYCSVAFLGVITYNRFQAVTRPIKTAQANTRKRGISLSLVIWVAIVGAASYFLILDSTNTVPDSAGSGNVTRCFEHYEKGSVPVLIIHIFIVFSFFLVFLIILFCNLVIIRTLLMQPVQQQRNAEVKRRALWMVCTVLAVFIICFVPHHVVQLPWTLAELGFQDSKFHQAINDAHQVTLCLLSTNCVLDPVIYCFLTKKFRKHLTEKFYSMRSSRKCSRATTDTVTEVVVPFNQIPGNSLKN

[15] = biological target: Sigma non-opioid intracellular receptor 1 (Homo sapiens) (UniProt Q99720); assay: Inhibition of human sigma 1 receptor at 10 uM relative to control
[16] = biological target: Substance-P receptor (Homo sapiens) (UniProt P25103); assay: Inhibition of human tachykinin NK1 receptor at 10 uM relative to control
[17] = biological target: Cysteinyl leukotriene receptor 1 (Homo sapiens) (UniProt Q9Y271); assay: Inhibition of human cysteinyl cys leukotriene receptor 1 at 10 uM relative to control
Chain of Cysteinyl leukotriene receptor 1 (Homo sapiens) (Q9Y271 whole entry): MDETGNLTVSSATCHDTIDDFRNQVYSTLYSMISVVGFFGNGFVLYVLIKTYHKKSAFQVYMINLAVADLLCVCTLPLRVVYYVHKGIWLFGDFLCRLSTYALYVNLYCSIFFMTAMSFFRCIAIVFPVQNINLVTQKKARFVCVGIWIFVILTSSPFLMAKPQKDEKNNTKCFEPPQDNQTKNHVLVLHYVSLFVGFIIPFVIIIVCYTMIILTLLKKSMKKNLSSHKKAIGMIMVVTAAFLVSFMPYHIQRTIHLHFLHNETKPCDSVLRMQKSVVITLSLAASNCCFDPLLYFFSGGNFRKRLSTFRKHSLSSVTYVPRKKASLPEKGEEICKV

[18] = biological target: Cannabinoid receptor 1 (Homo sapiens) (UniProt P21554); assay: Inhibition of human cannabinoid CB1 receptor at 10 uM relative to control
[19] = biological target: Adenosine receptor A1 (Homo sapiens) (UniProt P30542); assay: Inhibition of human adenosine A1 receptor at 10 uM relative to control
Chain of Adenosine receptor A1 (Homo sapiens) (P30542 whole entry): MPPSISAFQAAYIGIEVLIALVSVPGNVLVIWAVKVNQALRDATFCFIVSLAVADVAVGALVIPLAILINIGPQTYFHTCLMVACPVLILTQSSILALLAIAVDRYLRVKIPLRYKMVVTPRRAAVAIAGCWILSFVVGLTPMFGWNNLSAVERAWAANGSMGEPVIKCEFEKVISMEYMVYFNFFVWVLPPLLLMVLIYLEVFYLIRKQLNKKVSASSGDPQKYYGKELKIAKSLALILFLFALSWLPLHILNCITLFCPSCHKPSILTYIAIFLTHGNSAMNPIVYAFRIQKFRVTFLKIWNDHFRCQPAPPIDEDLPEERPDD

[20] = biological target: Muscarinic acetylcholine receptor M1 (Homo sapiens) (UniProt P11229); assay: Inhibition of human muscarinic M1 receptor at 10 uM relative to control
[21] = biological target: Delta-type opioid receptor (Homo sapiens) (UniProt P41143); assay: Inhibition of human delta 1 opioid receptor at 10 uM relative to control
[22] = biological target: Glutamate NMDA receptor (Rattus norvegicus) (UniProt P35439+Q00959+Q00960+Q00961+Q62645+Q8VHN2+Q9R1M7); assay: Inhibition of rat glutamate NMDA receptor phencyclidine binding site at 10 uM relative to control; assay type: protein-complex assay
[23] = biological target: L-type calcium channel, dihydropyridine site (Rattus norvegicus, UniProt P22002+P27732+Q02485); assay: Inhibition of rat L-type calcium channel dihydropyridine site at 10 uM relative to control; assay type: protein assay
[24] = organism: Mesocricetus auratus; assay: Inhibition of syrian hamster KATP at 10 uM relative to control
[25] = organism: Mus musculus; assay: Inhibition of mouse phorbol ester receptor at 10 uM relative to control
[26] = biological target: Metabotropic glutamate receptor 1 (Homo sapiens) (UniProt Q13255); assay: Negative allosteric modulation of human mGlu1 receptor expressed in TREX293 cells assessed as inhibition of glutamate induced-calcium mobilization preincubated for 2.3 mins followed by glutamate addition measured for 2.6 mins by Fluo-4 AM dye based fluorescence assay; assay type: functional, cell-based
Chain of Metabotropic glutamate receptor 1 (Homo sapiens) (Q13255 19-1194 limits assumed): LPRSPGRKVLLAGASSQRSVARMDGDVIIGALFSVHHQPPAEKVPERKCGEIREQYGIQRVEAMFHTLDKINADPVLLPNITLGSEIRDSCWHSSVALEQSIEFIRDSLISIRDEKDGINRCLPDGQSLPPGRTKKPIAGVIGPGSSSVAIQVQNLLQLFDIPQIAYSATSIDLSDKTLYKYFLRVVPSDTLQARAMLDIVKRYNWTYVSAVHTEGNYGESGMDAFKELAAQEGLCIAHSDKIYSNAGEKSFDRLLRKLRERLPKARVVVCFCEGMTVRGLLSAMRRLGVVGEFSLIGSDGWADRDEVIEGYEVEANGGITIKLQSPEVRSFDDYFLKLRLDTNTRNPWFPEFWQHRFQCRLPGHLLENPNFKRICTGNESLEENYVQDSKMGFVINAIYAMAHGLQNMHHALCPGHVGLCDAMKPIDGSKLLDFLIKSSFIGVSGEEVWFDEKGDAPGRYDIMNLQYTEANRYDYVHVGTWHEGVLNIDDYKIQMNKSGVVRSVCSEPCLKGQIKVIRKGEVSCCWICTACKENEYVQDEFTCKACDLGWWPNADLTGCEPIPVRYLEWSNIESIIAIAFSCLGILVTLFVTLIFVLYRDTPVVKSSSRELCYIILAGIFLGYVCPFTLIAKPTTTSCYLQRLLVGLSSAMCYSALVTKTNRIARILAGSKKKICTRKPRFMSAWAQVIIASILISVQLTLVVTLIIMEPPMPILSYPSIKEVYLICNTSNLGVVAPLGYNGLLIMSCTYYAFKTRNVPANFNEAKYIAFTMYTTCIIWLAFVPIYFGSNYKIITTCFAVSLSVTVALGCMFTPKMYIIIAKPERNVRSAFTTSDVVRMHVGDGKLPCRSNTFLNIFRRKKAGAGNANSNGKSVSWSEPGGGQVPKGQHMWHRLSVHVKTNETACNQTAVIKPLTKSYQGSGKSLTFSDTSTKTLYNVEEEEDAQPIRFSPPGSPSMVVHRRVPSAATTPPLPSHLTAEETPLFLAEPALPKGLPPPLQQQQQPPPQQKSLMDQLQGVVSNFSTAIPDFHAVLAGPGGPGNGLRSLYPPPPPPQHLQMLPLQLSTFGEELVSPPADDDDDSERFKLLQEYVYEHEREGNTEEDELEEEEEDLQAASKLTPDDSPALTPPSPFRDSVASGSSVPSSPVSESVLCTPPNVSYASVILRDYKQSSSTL

[27] = biological target: 5-hydroxytryptamine receptor 1A (Homo sapiens) (UniProt P08908); assay: Inhibition of human 5-HT1A receptor at 10 uM relative to control
[28] = organism: Rattus norvegicus; assay: Inhibition of rat N-type calcium channel […] at 10 uM relative to control
[29] = biological target: Metabotropic glutamate receptor 6 (Homo sapiens) (UniProt O15303); assay: Negative allosteric modulation of human mGlu6 receptor expressed in HEK/GIRK cells assessed as inhibition of glutamate induced-calcium mobilization preincubated for 2.3 mins followed by glutamate addition measured for 2.6 mins by Fluo-4 AM dye based fluorescence assay; assay type: functional, cell-based
[30] = Fraction unbound in human plasma at 5 uM after 4 hrs by equilibrium dialysis based LC/MS/MS analysis; assay type: ADME, cell-free
[31] = biological target: Prostaglandin E2 receptor EP4 subtype (Homo sapiens) (UniProt P35408); assay: Inhibition of human EP4 receptor at 10 uM relative to control
[32] = biological target: 5-hydroxytryptamine receptor 3A (Homo sapiens) (UniProt P46098); assay: Inhibition of human 5-HT3 receptor at 10 uM relative to control
[33] = biological target: 5-hydroxytryptamine receptor 2B (Homo sapiens) (UniProt P41595); assay: Inhibition of human 5-HT2B receptor at 10 uM relative to control
[34] = Ratio of drug uptake in Harlan CD-1 mouse brain at 3 mg/kg, ip to IC50 for negative allosteric modulation of rat mGlu3 receptor expressed in TREX cells coexpressing Galpha15; assay type: ADME, organism-based; settings: in vivo
[35] = Fraction unbound in mouse plasma at 5 uM after 4 hrs by equilibrium dialysis based LC/MS/MS analysis; assay type: ADME, cell-free
[36] = biological target: hERG (KCNH2) (Homo sapiens, UniProt Q12809); assay: Inhibition of human ERG at 10 uM relative to control
[37] = biological target: Acetylcholine receptor subunit alpha (Homo sapiens) (UniProt P02708); assay: Inhibition of human alpha1 nAChR bungarotoxin site at 10 uM relative to control
Chain of Acetylcholine receptor subunit alpha (Homo sapiens) (P02708 whole entry): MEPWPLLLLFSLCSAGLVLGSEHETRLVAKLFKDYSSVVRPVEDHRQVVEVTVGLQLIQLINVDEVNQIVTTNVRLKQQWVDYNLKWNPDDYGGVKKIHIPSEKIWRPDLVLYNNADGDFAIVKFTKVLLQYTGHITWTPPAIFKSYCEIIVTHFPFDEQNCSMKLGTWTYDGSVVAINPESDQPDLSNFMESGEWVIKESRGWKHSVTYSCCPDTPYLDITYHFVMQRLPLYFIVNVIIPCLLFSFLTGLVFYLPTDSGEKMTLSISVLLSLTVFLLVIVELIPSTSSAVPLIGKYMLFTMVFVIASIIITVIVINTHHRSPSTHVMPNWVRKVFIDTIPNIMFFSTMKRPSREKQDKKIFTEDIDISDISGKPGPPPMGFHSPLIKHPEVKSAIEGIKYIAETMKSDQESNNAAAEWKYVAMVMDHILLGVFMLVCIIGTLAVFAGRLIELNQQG

[38] = biological target: Alpha-1A adrenergic receptor (Rattus norvegicus) (UniProt P43140); assay: Inhibition of rat adrenergic alpha 1A receptor at 10 uM relative to control
[39] = organism: Rattus norvegicus; assay: Inhibition of rat P2Y receptor at 10 uM relative to control

With C[C@@H](COc1ccn(-c2ccc(F)cc2)c(=O)c1)Oc1ccccc1 as the compound, how does the inhibition [1] read?
Its inhibition is over 50%.

What about the Kp [2] of the same compound?
Its Kp is 1.2.

What about the IC50 [3] of the same compound?
The IC50 was over 30 µM.

And the inhibition [4]?
The inhibition was over 50%.

And the inhibition [5]?
The inhibition was over 50%.

And the inhibition [6]?
Its inhibition is over 50%.

What about the inhibition [7] of the same compound?
Its inhibition is over 50%.

And the inhibition [8]?
Its inhibition is over 50%.

And the inhibition [9]?
Its inhibition is over 50%.

And the Emin [10]?
The Emin was 3.33%.

What about the inhibition [11] of the same compound?
The inhibition was over 50%.

What about the inhibition [12] of the same compound?
Its inhibition is over 50%.

What about the inhibition [13] of the same compound?
Its inhibition is over 50%.

What about the inhibition [14] of the same compound?
Its inhibition is over 50%.

What about the inhibition [15] of the same compound?
Its inhibition is over 50%.

And the inhibition [16]?
The inhibition was over 50%.

And the inhibition [17]?
Its inhibition is over 50%.

And the inhibition [18]?
Its inhibition is over 50%.

And the inhibition [19]?
Its inhibition is over 50%.

What about the inhibition [20] of the same compound?
The inhibition was over 50%.

And the inhibition [21]?
The inhibition was over 50%.

And the inhibition [22]?
Its inhibition is over 50%.

And the inhibition at 10 µM [23]?
Its inhibition at 10 µM is over 50%.

And the inhibition [24]?
The inhibition was over 50%.

What about the inhibition [25] of the same compound?
Its inhibition is over 50%.

And the inhibition [26]?
Its inhibition is “inactive”.

And the inhibition [27]?
Its inhibition is over 50%.

What about the inhibition [28] of the same compound?
Its inhibition is over 50%.

What about the inhibition [29] of the same compound?
Its inhibition is “inactive”.

And the fraction unbound at 4 h, 5 µM [30]?
Its fraction unbound at 4 h, 5 µM is 0.18.

What about the inhibition [31] of the same compound?
The inhibition was over 50%.

What about the inhibition [32] of the same compound?
Its inhibition is over 50%.

What about the inhibition [33] of the same compound?
Its inhibition is over 50%.

And the Ratio [34]?
Its Ratio is 5.

And the fu [35]?
Its fu is 0.18.

What about the inhibition at 10 µM [36] of the same compound?
Its inhibition at 10 µM is over 50%.

And the inhibition [37]?
The inhibition was over 50%.

And the inhibition [38]?
Its inhibition is over 50%.

What about the inhibition [39] of the same compound?
Its inhibition is over 50%.
